Structures can show the parent of a compound that is named as a salt. Where two headings read alike, the source gives them in different places.
Tests used:
[1] = system: NCI-H292 lung cancer cells; experiment: FDA drug screening, complete media vs cholesterol-free media without statin (TABLE 1); assay type: cell-based, human
[2] = system: NCI-H292 lung cancer cells; experiment: FDA drug screening, complete media vs cholesterol-free media with simvastatin (TABLE 2); assay type: cell-based, human
[3] = NCI-H292 cells, FDA drug library screen, complete media
[4] = NCI-H292 cells, cholesterol-free media with simvastatin 0.04 μM, FDA drug library screen (TABLE 2)
[5] = NCI-H292 cells, complete media, FDA drug library screen (TABLE 2)
[6] = complete media minus cholesterol-free media + simvastatin (0.04 μM), >0 enhanced anti-cancer activity, about 0 neutral, <0 antagonist
[7] = Complete minus Cholesterol-free, >0 enhanced anti-cancer activity, about 0 neutral, <0 antagonist
[8] = NCI-H292 cells, cholesterol-free media without statin, FDA drug library screen
[9] = NCI-H292 cells, complete media, FDA drug library screen
[10] = NCI-H292 cells, FDA library drug in cholesterol-free media with simvastatin 0.04 μM
[11] = NCI-H292 cells, FDA library drug in complete media
[12] = complete media vs cholesterol-free media + simvastatin (0.04 μM), >0 enhanced anti-cancer activity, about 0 neutral, <0 antagonist
[13] = NCI-H292 cells, cholesterol-free media without statin
[14] = complete vs cholesterol-free media, […]
[15] = complete vs cholesterol-free media, >0 enhanced anti-cancer activity, about 0 neutral, <0 antagonist
[16] = complete media minus cholesterol-free media + simvastatin, […]
[17] = NCI-H292 cells, cholesterol-free media with simvastatin 0.04 μM, cell growth value in FDA drug screen
[18] = NCI-H292 cells, complete media, cell growth value in FDA drug screen
[19] = complete media minus cholesterol-free media + simvastatin, >0 enhanced anti-cancer activity, about 0 neutral, <0 antagonist

Row | Molecule | Cholesterol-free media + simvastatin (0.04 μM) [2, 4] | Complete Media [2, 5] | Difference [2, 6] | Difference [1, 7] | Cholesterol-free [1, 8] | Complete [1, 9] | Cholesterol-free [1, 13] | Complete ([1]; NCI-H292 cells, complete media) | further results
1 | CC(C)NCC(O)COc1ccc(CCOCC2CC2)cc1 (stereo not drawn) [Betaxolol] | 0.941 | 0.9172 | −0.02 | – | – | – | – | – | Difference ([1]; Complete minus Cholesterol-free, greater than 0 enhanced anti-cancer activity, about 0 neutral, below 0 antagonist): −0.10; Cholesterol-free ([1]; NCI-H292 cells, FDA drug library screen, cholesterol-free media without statin): 1.183; Complete [1, 3]: 1.079
2 | O=C1Nc2ccccc2/C1=C1/Nc2ccccc2C1=O [Indirubin] | – | – | – | −0.04 | 0.7727 | 0.7337 | – | – | Cholesterol-free media + simvastatin (0.04 μM) [2, 10]: 0.8483; Complete Media [2, 11]: 0.5782; Difference [2, 12]: −0.27
3 | CCN(CC)C(=O)C1(c2ccccc2)CC1CN (stereo not drawn) [Milnacipran (hydrochloride)] | 1.626 | 1.564 | – | – | – | – | 1.545 | 1.09 | Difference [1, 14]: −0.45; Difference ([2]; complete media minus cholesterol-free media + simvastatin (0.04 μM), […]): −0.06
4 | CC(=O)OCC(=O)[C@@]12N=C(C)O[C@@H]1C[C@H]1[C@@H]3CCC4=CC(=O)C=C[C@]4(C)[C@H]3[C@@H](O)C[C@@]12C [Deflazacort] | 0.6257 | 0.5899 | −0.04 | – | 0.629 | 0.7651 | – | – | Difference [1, 15]: 0.14
5 | CC(=O)OCC1=C(C(=O)O)N2C(=O)[C@@H](NC(=O)CSc3ccncc3)[C@H]2SC1 [Cephapirin (sodium)] | – | – | – | – | – | – | – | – | Cholesterol-free [1]: 0.9897; Complete [1]: 1.131; Difference [1]: 0.14; Cholesterol-free media + simvastatin (0.04 μM) [2]: 2.472; Complete Media [2]: 1.209; Difference [2]: −1.26
6 | Heparin (sodium salt) (MW 15 kDa) | – | – | – | – | – | – | 1.451 | 1.156 | Difference ([1]; Complete minus Cholesterol-free, […]): −0.29; Complete Media [2, 3]: 1.339; Difference [2, 16]: 0.23
7 | CC(C)C(=O)c1c(C(C)C)nn2ccccc12 [Ibudilast] | – | – | – | 0.04 | 1.126 | 1.165 | – | – | Cholesterol-free media + simvastatin (0.04 μM) [2, 17]: 1.245; Complete Media [2, 18]: 1.273; Difference [2, 19]: 0.03
8 | C[C@]12C=CC(=O)C=C1CC[C@H]1[C@@H]3C[C@@H](O)[C@](O)(C(=O)CO)[C@@]3(C)C[C@H](O)[C@@]12F [Triamcinolone] | 1.201 | – | −0.04 | −0.27 | – | – | 0.8896 | 0.6155 | –
9 | CNCC(=O)N[C@@H](CCCN=C(N)N)C(=O)N[C@H](C(=O)N[C@@H](Cc1ccc(O)cc1)C(=O)N[C@H](C(=O)N[C@@H](Cc1cnc[nH]1)C(=O)N1CCC[C@H]1C(=O)N[C@@H](C)C(=O)O)C(C)C)C(C)C [Saralasin (TFA)] | – | – | – | – | 1.11 | 1.396 | – | – | Difference [1, 14]: 0.29; Cholesterol-free media + simvastatin (0.04 μM) ([2]; NCI-H292 cells, cholesterol-free media with simvastatin 0.04 μM, […]): 0.7862; Complete Media ([2]; NCI-H292 cells, complete media, […]): 0.8195; Difference [2, 16]: 0.03
10 | CCCc1cc(=O)[nH]c(=S)[nH]1 [Propylthiouracil] | 0.9529 | 0.939 | −0.01 | −0.23 | – | – | 1.082 | 0.8473 | –
11 | CO[C@]12C[C@@H](COC(=O)c3cncc(Br)c3)CN(C)[C@@H]1Cc1cn(C)c3cccc2c13 [Nicergoline] | – | – | – | – | 0.9355 | 1.445 | – | – | Difference [1, 15]: 0.51; Cholesterol-free media + simvastatin (0.04 μM) [2, 10]: 1.053; Complete Media [2, 11]: 0.4708; Difference [2, 12]: −0.58
12 | CC(C)c1nc(N(C)S(C)(=O)=O)nc(-c2ccc(F)cc2)c1/C=C/[C@@H](O)C[C@@H](O)CC(=O)O [Rosuvastatin (Calcium)] | – | – | – | −0.24 | – | – | 1.156 | 0.9201 | Cholesterol-free media + simvastatin (0.04 μM) [2, 17]: 0.9188; Complete Media [2, 18]: 1.001; Difference [2, 19]: 0.08
13 | Nc1cc(N2CCCCC2)nc(N)[n+]1[O-] [Minoxidil] | – | – | – | −0.20 | – | – | 1.202 | 1.002 | Cholesterol-free media + simvastatin (0.04 μM) [2, 10]: 1.841; Difference [2, 12]: −0.68

— US20250144067A1, “PERSONALIZED STARVATION THERAPY FOR CANCER” (Faeth Therapeutics, Inc., priority 2021, published 2025)
